PubChem BioAssay AID248 (DTP/NCI, 2004)
Where “and” joins values, the source holds several entries; their conditions need not be identical. Identical values can stand only once. Inconclusive results and toxic doses are left out. Rule as the data show it: active = T/C of 150% or more; inactive = T/C below 125%.

Test system: L1210 leukemia ip in BDF1 mice, survival T/C
Experiment: NCI In Vivo Anticancer Drug Screen. Data for tumor model L1210 Leukemia (intraperitoneal) in B6D2F1 (BDF1) mice
Conditions: endpoint: mean survival time, higher = longer survival
How it was run: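 Mice bearing the transplanted tumor received compound or vehicle. Survival of the treated group was divided by that of the vehicle-treated control group to give the ratio.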

[1] = dose: 100.0 mg/kg/injection, schedule: Q01DX001 (ip), vehicle: saline
[2] = dose: 100.0 mg/kg/injection, schedule: Q04DX003 (ip), vehicle: saline with Tween-80
[3] = dose: 200.0 mg/kg/injection, schedule: Q04DX003 (ip), vehicle: saline with Tween-80
[4] = dose: 400.0 mg/kg/injection, schedule: Q04DX003 (ip), vehicle: saline with Tween-80
[5] = dose: 100.0 mg/kg/injection, schedule: Q01DX009 (ip), vehicle: Klucel (hydroxypropylcellulose) (HPC)
[6] = dose: 200.0 mg/kg/injection, schedule: Q01DX009 (ip), vehicle: Klucel (hydroxypropylcellulose) (HPC)
[7] = dose: 200.0 mg/kg/injection, schedule: Q04DX003 (ip), vehicle: Klucel (hydroxypropylcellulose) (HPC)
[8] = dose: 400.0 mg/kg/injection, schedule: Q01DX009 (ip), vehicle: Klucel (hydroxypropylcellulose) (HPC)
[9] = dose: 400.0 mg/kg/injection, schedule: Q04DX003 (ip), vehicle: Klucel (hydroxypropylcellulose) (HPC)
[10] = dose: 200.0 mg/kg/injection, schedule: Q01DX001 (ip), vehicle: saline
[11] = dose: 400.0 mg/kg/injection, schedule: Q01DX001 (ip), vehicle: saline
[12] = dose: 100.0 mg/kg/injection, schedule: Q01DX009 (ip), vehicle: saline with Tween-80
[13] = dose: 200.0 mg/kg/injection, schedule: Q01DX009 (ip), vehicle: saline with Tween-80
[14] = dose: 400.0 mg/kg/injection, schedule: Q01DX009 (ip), vehicle: saline with Tween-80
[15] = dose: 50.0 mg/kg/injection, schedule: Q01DX009 (ip), vehicle: saline
[16] = dose: 100.0 mg/kg/injection, schedule: Q01DX001 (ip), vehicle: saline with Tween-80
[17] = dose: 100.0 mg/kg/injection, schedule: Q04DX003 (ip), vehicle: Klucel (hydroxypropylcellulose) (HPC)
[18] = dose: 100.0 mg/kg/injection, schedule: Q01DX009 (ip), vehicle: saline

Measured: T/C

CN(C)/N=N/c1[nH]ncc1C(N)=O
active: dose: 108.0 mg/kg/injection, schedule: Q01DX009 (ip), vehicle: saline 176 % of control | dose: 600.0 mg/kg/injection, schedule: Q01DX001 (ip), vehicle: saline 156 % of control
inactive: [1] 113 % of control | dose: 300.0 mg/kg/injection, schedule: Q01DX009 (ip), vehicle: saline 110 % of control

O=[As](O)(O)c1ccccc1N=Nc1ccccc1
inactive: dose: 75.0 mg/kg/injection, schedule: Q01DX009 (ip), vehicle: Klucel (hydroxypropylcellulose) (HPC) 100 % of control | dose: 150.0 mg/kg/injection, schedule: Q01DX009 (ip), vehicle: Klucel (hydroxypropylcellulose) (HPC) 87 % of control | dose: 300.0 mg/kg/injection, schedule: Q01DX009 (ip), vehicle: Klucel (hydroxypropylcellulose) (HPC) 108 % of control

CC/C(C)=C(/C(=O)O)c1ccccc1
inactive: [2] 91 % of control | [3] 94 % of control | [4] 94 % of control

CC(=O)Nc1cccc([As](=O)(c2cccc(NC(C)=O)c2)c2cccc(NC(C)=O)c2)c1
inactive: dose: 55.0 mg/kg/injection, schedule: Q01DX Z (ip), vehicle: methylcellulose (MC) 98 % of control | dose: 125.0 mg/kg/injection, schedule: Q01DX Z (ip), vehicle: methylcellulose (MC) 98 % of control

CC12CCCCC1CC(=O)/C(=C\O)C2 (centres undefined)
inactive: dose: 25.0 mg/kg/injection, schedule: Q04DX002 (ip), vehicle: DMSO 94 % of control | dose: 50.0 mg/kg/injection, schedule: Q04DX002 (ip), vehicle: DMSO 90 % of control

Cc1nccc2ccsc12
inactive: dose: 75.0 mg/kg/injection, schedule: Q01DX001 (ip), vehicle: other 105 % of control | dose: 150.0 mg/kg/injection, schedule: Q01DX001 (ip), vehicle: other 102 % of control

NC(=S)SCCC(=O)O
inactive: [5] 96 % of control | [6] 100 % of control | [7] 93 % of control | [8] 94 % of control | [9] 92 % of control

Brc1ccc(N=N/C(=N/Nc2ccccc2)c2ccc(/C=N/Nc3ccccc3)cc2)cc1
inactive: dose: 50.0 mg/kg/injection, schedule: Q01DX001 (ip), vehicle: saline 95 % of control | [1] 101 % of control | [10] 95 % of control | [11] 91 % of control

CN(C)NC(=O)CC(NCc1ccccc1)C(=O)O (centres undefined)
inactive: [12] 94 % of control | [13] 95 % of control | [14] 95 % of control

CNCCOC(c1ccccc1)c1ccccc1C (centres undefined)
inactive: dose: 3.12 mg/kg/injection, schedule: Q01DX009 (ip), vehicle: saline 107 % of control | dose: 5.0 mg/kg/injection, schedule: Q01DX001 (ip), vehicle: saline 103 % of control | dose: 6.25 mg/kg/injection, schedule: Q01DX009 (ip), vehicle: saline 96 % of control | dose: 10.0 mg/kg/injection, schedule: Q01DX001 (ip), vehicle: saline 100 % of control | dose: 12.5 mg/kg/injection, schedule: Q01DX009 (ip), vehicle: saline 101 % of control | dose: 20.0 mg/kg/injection, schedule: Q01DX001 (ip), vehicle: saline 105 % of control | dose: 25.0 mg/kg/injection, schedule: Q01DX009 (ip), vehicle: saline 101 % of control | dose: 25.0 mg/kg/injection, schedule: Q04DX003 (ip), vehicle: saline 94 % of control | dose: 40.0 mg/kg/injection, schedule: Q01DX001 (ip), vehicle: saline 100 % of control | [15] 106 % of control | dose: 50.0 mg/kg/injection, schedule: Q04DX003 (ip), vehicle: saline 108 % of control | dose: 80.0 mg/kg/injection, schedule: Q01DX001 (ip), vehicle: saline 103 % of control

O=C(NC(=S)Nc1cccc2ccc(O)cc12)c1ccc(Cl)cc1Cl
inactive: [16] 101 % of control | [12] 94 % of control and 106 % of control | dose: 100.0 mg/kg/injection, schedule: Q04DX002 (ip), vehicle: saline with Tween-80 103 % of control and 92 % of control | [2] 100 % of control | dose: 200.0 mg/kg/injection, schedule: Q01DX001 (ip), vehicle: saline with Tween-80 92 % of control | [13] 98 % of control and 101 % of control | dose: 200.0 mg/kg/injection, schedule: Q04DX002 (ip), vehicle: saline with Tween-80 95 % of control and 103 % of control | [3] 97 % of control | dose: 400.0 mg/kg/injection, schedule: Q01DX001 (ip), vehicle: saline with Tween-80 103 % of control | [14] 103 % of control and 108 % of control | dose: 400.0 mg/kg/injection, schedule: Q04DX002 (ip), vehicle: saline with Tween-80 97 % of control and 98 % of control | [4] 92 % of control

N#CC(Cc1ccccc1Cl)(Cc1ccccc1Cl)c1ccccc1
inactive: [5] 110 % of control | [17] 108 % of control | [6] 105 % of control | [7] 94 % of control | [8] 105 % of control | [9] 108 % of control

C/C(=N/NC(=O)c1ccccc1)C(=O)c1ccccc1
inactive: dose: 100.0 mg/kg/injection, schedule: Q01DX001 (ip), vehicle: Klucel (hydroxypropylcellulose) (HPC) 101 % of control | dose: 200.0 mg/kg/injection, schedule: Q01DX001 (ip), vehicle: Klucel (hydroxypropylcellulose) (HPC) 97 % of control | dose: 400.0 mg/kg/injection, schedule: Q01DX001 (ip), vehicle: Klucel (hydroxypropylcellulose) (HPC) 98 % of control

COC1OC2COC(c3ccccc3)OC2C(O)C1OC (centres undefined)
inactive: dose: 12.5 mg/kg/injection, schedule: Q04DX002 (ip), vehicle: saline 100 % of control | dose: 25.0 mg/kg/injection, schedule: Q04DX002 (ip), vehicle: saline 100 % of control | dose: 50.0 mg/kg/injection, schedule: Q04DX002 (ip), vehicle: saline 116 % of control

C=C(C)C1C2OC(=O)C1C1(O)CC3OC34C(=O)OC2C14C (centres undefined)
inactive: dose: 1.25 mg/kg/injection, schedule: Q01DX001 (ip), vehicle: other 109 % of control | dose: 2.5 mg/kg/injection, schedule: Q01DX001 (ip), vehicle: other 101 % of control

O=S(=O)(NC(=S)c1ccccc1)c1ccccc1
inactive: [15] 108 % of control | [18] 97 % of control

O=C(Nc1ccc(NC(=O)Nc2cc(C3=NCCN3)cc(C3=NCCN3)c2)cc1)Nc1cc(C2=NCCN2)cc(C2=NCCN2)c1
inactive: dose: 15.0 mg/kg/injection, schedule: Q01DX Z (ip), vehicle: saline 90 % of control

Nc1ccc(CCCCOc2ccccc2)cc1
inactive: dose: 25.0 mg/kg/injection, schedule: Q01DX001 (ip), vehicle: saline with Tween-80 104 % of control | dose: 50.0 mg/kg/injection, schedule: Q01DX001 (ip), vehicle: saline with Tween-80 95 % of control | [16] 98 % of control and 106 % of control

COc1ccc(NC(=O)C(c2ccccc2)c2ccccc2)cc1
inactive: [2] 92 % of control | [3] 93 % of control | [4] 92 % of control

CC12C(C#N)=C(c3ccccc3)C=C(c3ccccc3)C1=C(c1ccccc1)c1ccccc12 (centres undefined)
inactive: [5] 100 % of control | [17] 89 % of control | [6] 100 % of control | [7] 100 % of control | [8] 94 % of control | [9] 94 % of control

O=c1c2ccccc2[nH]c2cc(Cl)ccc12
inactive: dose: 50.0 mg/kg/injection, schedule: Q01DX Z (ip), vehicle: carboxymethylcellulose (CMC) 109 % of control | dose: 100.0 mg/kg/injection, schedule: Q01DX Z (ip), vehicle: carboxymethylcellulose (CMC) 103 % of control | dose: 200.0 mg/kg/injection, schedule: Q01DX Z (ip), vehicle: carboxymethylcellulose (CMC) 97 % of control | dose: 400.0 mg/kg/injection, schedule: Q01DX Z (ip), vehicle: carboxymethylcellulose (CMC) 115 % of control

COC(=O)CCC(C)[N+](=O)[O-] (centres undefined)
inactive: [18] 112 % of control | dose: 200.0 mg/kg/injection, schedule: Q01DX009 (ip), vehicle: saline 104 % of control | dose: 400.0 mg/kg/injection, schedule: Q01DX009 (ip), vehicle: saline 98 % of control

COC(=O)C1C(=O)OC(C)(C)C1c1ccccc1 (centres undefined)
inactive: dose: 44.0 mg/kg/injection, schedule: Q01DX001 (ip), vehicle: saline 95 % of control | dose: 66.0 mg/kg/injection, schedule: Q01DX001 (ip), vehicle: saline 101 % of control | [1] 100 % of control | dose: 150.0 mg/kg/injection, schedule: Q01DX001 (ip), vehicle: saline 103 % of control | [10] 91 % of control | [11] 91 % of control
